Source: patent US10376499B2, “Combination therapy for treatment of resistant bacterial infections” (priority 2014, dated 2019)
Structures can show the parent of a compound that is named as a salt. Where two headings read alike, the source gives them in different places.

How the values were obtained:
A. baumannii [1] = assay: MIC, 20 diverse recent strains of A. baumannii (Example 10); assay type: cell-based, Acinetobacter baumannii; conditions: N 20 A. baumannii strains
Citrobacter spp = assay: MIC, recent Enterobacteriaceae clinical isolates: Citrobacter spp (Examples 7, 11); assay type: cell-based; conditions: for MIC: read-out: MIC
A. baumannii [2] = assay: Neutropenic mouse thigh and lung infection models; conditions: neutropenic CD-1 mice, subcutaneous q3h, sulbactam+compound 1 at 4:1 ratio, 24 h, isolate containing AmpC, OXA-66, OXA-72, TEM-1, FIG. 4
Enterobacter cloacae = assay: MIC, recent Enterobacteriaceae clinical isolates: Enterobacter cloacae (Examples 7, 11); assay type: cell-based
Enterobacteriaceae = assay: organism not typed; assay type: cell-based
Escherichia coli = assay: MIC, recent Enterobacteriaceae clinical isolates: Escherichia coli (Examples 7, 11); conditions: Escherichia coli
Klebsiella pneumoniae = assay: MIC, recent Enterobacteriaceae clinical isolates: Klebsiella pneumoniae (Examples 7, 11)

CC1=C[C@@H]2CN(C(=O)N2OS(=O)(=O)O)[C@@H]1C(N)=O [Compound 1, (2S,5R)-2-carbamoyl-3-methyl-7-oxo-1,6-diazabicyclo[3.2.1]oct-3-en-6-yl hydrogen sulfate]
MIC50 (A. baumannii [1]): 64 µg/mL | MIC90 (A. baumannii [1]): > 64 µg/mL | MIC Max (A. baumannii [1]): > 64 µg/mL | MIC Min (A. baumannii [1]): 16 µg/mL | MIC (Citrobacter spp; Citrobacter braakii ARC3660, CTX-M-15): 0.25 µg/mL | MIC (Citrobacter spp; Citrobacter freundii ARC3522, AmpC, TEM-1, CMY65): 0.5 µg/mL | MIC (Citrobacter spp; Citrobacter freundii ARC3883, KPC-2): 32 µg/mL | MIC (Citrobacter spp; Citrobacter freundii ARC3884, KPC-2): 4 µg/mL | MIC (Citrobacter spp; Citrobacter freundii ARC3885, AmpH, TEM-1, SHV-5, CMY-6, CMY-13): 4 µg/mL | MIC (Citrobacter spp; Citrobacter koseri ARC2001, ESBL): 0.5 µg/mL | MIC (Citrobacter spp; Citrobacter koseri ARC2002, ESBL): 0.5 µg/mL | MIC range (Citrobacter spp; Citrobacter spp, N 7): 0.25 to 4 µg/mL | MIC50 (Citrobacter spp; Citrobacter spp, N 7, read-out: MIC50): 0.5 µg/mL | MIC90 (Citrobacter spp; Citrobacter spp, N 7, read-out: MIC90): 4 µg/mL | efficacy (mean delta log CFU) (A. baumannii [2]): recover the activity | MIC (Enterobacter cloacae; Enterobacter cloacae ARC4438, AmpC+, read-out: MIC): 2 µg/mL | MIC (Enterobacter cloacae; Enterobacter cloacae ARC4439, AmpC+, LAP-2+, read-out: MIC): 0.5 µg/mL | MIC (Enterobacter cloacae; Enterobacter cloacae ARC4444, AmpC+, MIR-8[I175L]): 4 µg/mL | MIC (Enterobacter cloacae; Enterobacter cloacae ARC4458, AmpC+, ACT-2[V312M]): 8 µg/mL | MIC (Enterobacter cloacae; Enterobacter cloacae ARC4461, AmpC+, TEM-1, read-out: MIC): 0.25 µg/mL | MIC (Enterobacter cloacae; Enterobacter cloacae ARC4462, AmpC+, read-out: MIC): 0.5 µg/mL | MIC (Enterobacter cloacae; Enterobacter cloacae ARC4473, SHV-5+, AmpC+, DHA-1+, TEM-1+, read-out: MIC): 0.5 µg/mL | MIC (Enterobacter cloacae; Enterobacter cloacae ARC4489, AmpC+, read-out: MIC): 1 µg/mL | MIC (Enterobacter cloacae; Enterobacter cloacae ARC4492, AmpC+, read-out: MIC): 0.5 µg/mL | MIC (Enterobacter cloacae; Enterobacter cloacae ARC4494, OXA-1+, DHA-1+, AmpC+, read-out: MIC): 0.25 µg/mL | MIC90 (Enterobacter cloacae; N 10): 4 µg/mL | MIC range (Enterobacter cloacae; N 10): 0.25 to 8 µg/mL | MIC50 (Enterobacter cloacae; N 10, read-out: MIC50): 0.5 µg/mL | MIC50 (Enterobacteriaceae): 0.5 µg/mL | MIC90 (Enterobacteriaceae): 4 µg/mL | MIC range (Enterobacteriaceae; Total Enterobacteriaceae, N 59): 0.125 to 32 µg/mL | MIC (Escherichia coli): 0.125 µg/mL | MIC50 (Escherichia coli): 0.5 µg/mL | MIC90 (Escherichia coli): 4 µg/mL | MIC (Escherichia coli; ATCC25922, Escherichia coli ARC4, none (ATCC 25922) CLSI control): 8 µg/mL | MIC (Escherichia coli; Escherichia coli ARC4416, CTX-M-14+, TEM-1+): 0.5 µg/mL | MIC (Escherichia coli; Escherichia coli ARC4418, CTX-M-14+, CMY-2+): 0.25 µg/mL | MIC (Escherichia coli; Escherichia coli ARC4419, SHV-12+): 0.25 µg/mL | MIC (Escherichia coli; Escherichia coli ARC4421, CTX-M-55, TEM-1+, CMY-2+): 0.25 µg/mL | MIC (Escherichia coli; Escherichia coli ARC4429, TEM-1+, CMY-2+): 0.25 µg/mL | MIC (Escherichia coli; Escherichia coli ARC4432, CTX-M-14+, TEM-1+, CMY-2+): 0.25 µg/mL | MIC (Escherichia coli; Escherichia coli ARC4436, CTX-M-14+, TEM-1+): 0.25 µg/mL | MIC (Escherichia coli; Escherichia coli ARC4449, CMY-2+, TEM-1+): 0.5 µg/mL | MIC (Escherichia coli; Escherichia coli ARC4450, TEM-1+, OXA-1+, CMY-2+): 2 µg/mL | MIC (Escherichia coli; Escherichia coli ARC4452, SHV-12+): 0.25 µg/mL | MIC (Escherichia coli; Escherichia coli ARC4455, SHV-12+): 0.25 µg/mL | MIC (Escherichia coli; Escherichia coli ARC4465, CMY-2+): 0.25 µg/mL | MIC (Escherichia coli; Escherichia coli ARC4471, CMY-2+, OXA-1+, TEM-1+): 4 µg/mL | MIC (Escherichia coli; Escherichia coli ARC4472, CMY-2+, TEM-1+): 2 µg/mL | MIC (Escherichia coli; Escherichia coli ARC4477, CTX-M-15+, TEM-1+): 2 µg/mL | MIC (Escherichia coli; Escherichia coli ARC4478, CTX-M-15+, CMY-2+): 0.5 µg/mL | MIC (Escherichia coli; Escherichia coli ARC4479, CMY-42+, OXA-1+, OXA-9+, TEM-1+): 32 µg/mL | MIC (Escherichia coli; Escherichia coli ARC4485, CMY-2+, OXA-1+, CTX-M-15+): 0.5 µg/mL | MIC (Escherichia coli; Escherichia coli ARC4487, SHV-5+, DHA-1+, TEM-1+, OXA-1+, CMY-2+): 4 µg/mL | MIC50 (Klebsiella pneumoniae): 1 µg/mL | MIC90 (Klebsiella pneumoniae): 4 µg/mL | MIC (Klebsiella pneumoniae; Klebsiella pneumoniae ARC4414, SHV-11): 2 µg/mL | MIC (Klebsiella pneumoniae; Klebsiella pneumoniae ARC4420, SHV-11, SHV-12, DHA-1, OXA-1): 1 µg/mL | MIC (Klebsiella pneumoniae; Klebsiella pneumoniae ARC4427, SHV-1, OXA-1): 0.25 µg/mL | MIC (Klebsiella pneumoniae; Klebsiella pneumoniae ARC4434, SHV-11): 2 µg/mL | MIC (Klebsiella pneumoniae; Klebsiella pneumoniae ARC4435, SHV-157): 0.25 µg/mL | MIC (Klebsiella pneumoniae; Klebsiella pneumoniae ARC4446, SHV-11): 2 µg/mL | MIC (Klebsiella pneumoniae; Klebsiella pneumoniae ARC4451, SHV-11, KPC-3): 0.5 µg/mL | MIC (Klebsiella pneumoniae; Klebsiella pneumoniae ARC4457, SHV-11, DHA-1): 0.5 µg/mL | MIC (Klebsiella pneumoniae; Klebsiella pneumoniae ARC4460, SHV-11, CTX-M15, OXA-1, NDM-1): 4 µg/mL | MIC (Klebsiella pneumoniae; Klebsiella pneumoniae ARC4467, SHV-33, TEM-1, OXA-1, DHA-1): 4 µg/mL | MIC (Klebsiella pneumoniae; Klebsiella pneumoniae ARC4468, SHV-1): 8 µg/mL | MIC (Klebsiella pneumoniae; Klebsiella pneumoniae ARC4476, SHV-11, KPC-2, OXA-9[W117*]): 4 µg/mL | MIC (Klebsiella pneumoniae; Klebsiella pneumoniae ARC4480, SHV-27): 0.5 µg/mL | MIC (Klebsiella pneumoniae; Klebsiella pneumoniae ARC4483, SHV-11): 1 µg/mL | MIC (Klebsiella pneumoniae; Klebsiella pneumoniae ARC4484, SHV-168): 1 µg/mL | MIC (Klebsiella pneumoniae; Klebsiella pneumoniae ARC4488, SHV-11, CTX-M15, OXA-1, TEM-1): 0.25 µg/mL | MIC (Klebsiella pneumoniae; Klebsiella pneumoniae ARC4490, SHV-11, CTX-M15, KPC-2, OXA-1): 0.5 µg/mL | MIC (Klebsiella pneumoniae; Klebsiella pneumoniae ARC4495, SHV-60, LAP-2): 4 µg/mL
